Experimental data from patent US6022869A, “Aminoheterocyclic compounds with antithrombotic/anticoagulant effect” (Zeneca Limited, priority 1996, dated 2000).

Columns and labels:
[1] = test system: various animal models of thrombotic disease; conditions: cited from earlier work
Factor Xa = conditions: known from the literature; cited from earlier work
[2] = test system: human, rat or rabbit blood plasma (prothrombin time); assay: Measurement of Anticoagulant Activity, prothrombin time (PT) test in vitro (test c); conditions: plasma incubated 10 minutes at 37° C., species not given
Experimental: c) Measurement of Anticoagulant Activity
An in vitro assay whereby human, rat or rabbit venous blood was collected and added directly to a sodium citrate solution (3.2 g/100 ml, 9 parts blood to 1 part citrate solution). Blood plasma was prepared by centrifugation (1000 g, 15 minutes) and stored at 2-4° C. Conventional prothrombin time (PT) tests were carried out in the presence of various concentrations of a test compound and the concentration of test compound required to double the clotting time, hereinafter referred to as CT2, was determined. In the PT test, the test compound and blood plasma were incubated at 37° C. for 10 minutes. Tissue thromboplastin with calcium (Sigma Limited, Poole, England) was added. Fibrin formation and the time required for a clot to form were determined.

human Factor Xa = human Factor Xa (Homo sapiens, UniProt P00742); assay: Measurement of Factor Xa Inhibition (test a, chromogenic substrate S-2765); assay type: biochemical; conditions: pH 7.5, 37° C., human Factor Xa 0.001 Units/ml
human Factor Xa, sequence (P00742 235-488 limits assumed): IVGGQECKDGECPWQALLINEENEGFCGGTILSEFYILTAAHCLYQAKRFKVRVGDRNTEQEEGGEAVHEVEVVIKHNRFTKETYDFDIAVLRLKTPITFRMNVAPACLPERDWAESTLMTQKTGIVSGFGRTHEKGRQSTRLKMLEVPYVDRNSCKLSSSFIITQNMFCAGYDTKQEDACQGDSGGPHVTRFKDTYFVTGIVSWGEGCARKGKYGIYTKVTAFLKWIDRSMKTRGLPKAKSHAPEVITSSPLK
human Factor Xa, sequence (P00742 41-179 partner limits assumed): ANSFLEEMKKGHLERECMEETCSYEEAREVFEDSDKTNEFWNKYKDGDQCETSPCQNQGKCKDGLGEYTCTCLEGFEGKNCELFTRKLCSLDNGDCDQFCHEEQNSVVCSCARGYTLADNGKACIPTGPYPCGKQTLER
Experimental: a) Measurement of Factor Xa Inhibition
An in vitro assay system was carried out based on the method of Kettner et al., J. Biol. Chem., 1990, 265, 18289-18297, whereby various concentrations of a test compound were dissolved in a pH7.5 buffer containing 0.5% of a polyethylene glycol (PEG 6000) and incubated at 37° C. with human Factor Xa (0.001 Units/ml, 0.3 ml) for 15 minutes. The chromogenic substrate S-2765 (KabiVitum AB, 20 μM) was added and the mixture was incubated at 37° C. for 20 minutes whilst the absorbance at 405 nm was measured. The maximum reaction velocity (Vmax) was determined and compared with that of a control sample containing no test compound. Inhibitor potency was expressed as an IC50 value.

human thrombin = molecular target: T1, human thrombin (Homo sapiens, UniProt P00734); assay: Measurement of Thrombin Inhibition (test b, chromogenic substrate S-2238); assay type: biochemical; conditions: human thrombin 0.005 Units/ml, S-2238 7 μM
T1 construct: cleaves prothrombin to generate thrombin
Experimental: b) Measurement of Thrombin Inhibition
The procedure of method a) was repeated except that human thrombin (0.005 Units/ml) and the chromogenic substrate S-2238 (KabiVitum AB, 7 μM) were employed.

Row | Molecule | antithrombotic properties (in words) [1] | Factor Xa inhibition (specificity, in words) (Factor Xa) | CT2 (PT), concentration of test compound required to double the clotting time [2] | IC50 (human Factor Xa) | IC50 (human thrombin)
1 | tick anticoagulant protein (TAP): protein, specific Factor Xa inhibitor which possesses antithrombotic properties (YNRLCIKPRDWIDECDSNEGGERAYFRNGKGGCDSFWICPEDHTGADYYSSYRDCFNACI; UniProt P17726 1-60, looked up) | possess antithrombotic properties | specific Factor Xa inhibitors |  |  | 
2 | CCSCCNC(=O)C1CN(S(=O)(=O)c2ccc3cc(Br)ccc3c2)CCN1C(=O)C1CCN(c2ccncc2)CC1 (stereo not shown) [Example 1, 4-(6-Bromonaphth-2-ylsulphonyl)-2-[N-(2-(ethylthio)ethyl)carbamoyl]-[1-1-(4-pyridyl)piperidin-4-ylcarbonyl]piperazine] |  |  | 1 µM | 4 nM | > 5000 nM
3 | antistasin: protein, specific Factor Xa inhibitor which possesses antithrombotic properties (protein, UniProt P15358 18-136, looked up) Antistasin: QGPFGPGCEEAGCPEGSACNIITDRCTCSGVRCRMHCPHGFQRSRYGCEFCKCRLEPMKATCDISECPEGMMCSRLTNKCDCKIDINCRKTCPNGLKRDKLGCEYCECRPKRKLIPRLS | possess antithrombotic properties | specific Factor Xa inhibitors |  |  | 
